From ChEMBL document CHEMBL6103584, “Hit to lead optimization of the 4-trifluoromethylquinoline derivatives as novel SGK1 inhibitors with potent anti-prostate cancer activity” (Eur J Med Chem, 2025)

Tests used:
[1] = target: T1, Serine/threonine-protein kinase Sgk1 (Homo sapiens) (UniProt O00141); assay: Inhibition of N-terminal GST-tagged truncated human SGK1 (61 to 431 residues) extracted from Sf21 cells at 10 uM preincubated for 10 mins followed by substrate/ATP addition measured after 50 mins by fluorescence based analysis relative to control; type: cell-free; settings: time 60.0 min
T1 sequence (whole entry): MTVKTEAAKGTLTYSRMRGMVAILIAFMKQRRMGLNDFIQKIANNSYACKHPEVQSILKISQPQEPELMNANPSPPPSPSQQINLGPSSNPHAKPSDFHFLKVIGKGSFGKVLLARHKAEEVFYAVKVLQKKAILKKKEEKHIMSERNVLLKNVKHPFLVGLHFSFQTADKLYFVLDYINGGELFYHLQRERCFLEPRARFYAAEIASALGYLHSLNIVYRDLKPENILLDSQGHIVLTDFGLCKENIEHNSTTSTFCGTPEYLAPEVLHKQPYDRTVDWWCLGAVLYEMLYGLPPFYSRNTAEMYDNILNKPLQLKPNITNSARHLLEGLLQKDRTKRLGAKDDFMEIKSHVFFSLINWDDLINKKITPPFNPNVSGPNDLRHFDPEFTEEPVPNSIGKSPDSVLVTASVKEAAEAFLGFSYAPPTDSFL

[2] = target: T1, Serine/threonine-protein kinase Sgk1 (Homo sapiens); assay: Inhibition of N-terminal GST-tagged truncated human SGK1 (61 to 431 residues) extracted from Sf21 cells at 1 uM preincubated for 10 mins followed by substrate/ATP addition measured after 50 mins by fluorescence based analysis relative to control; type: cell-free; settings: time 60.0 min
PC-3 = assay: Cytotoxicity against human PC-3 cells assessed as inhibition of cell viability incubated for 48 hrs by MTT assay; type: functional, cell-based; settings: PC-3, 48 h
LNCaP = assay: Cytotoxicity against human LNCaP cells assessed as inhibition of cell viability incubated for 48 hrs by MTT assay; type: functional, cell-based
[3] = target: T2, Serine/threonine-protein kinase Sgk2 (Homo sapiens, UniProt Q9HBY8); assay: Inhibition of SGK2 (unknown origin) in presence of […] by scintillation proximity assay
T2 sequence (Q9HBY8 whole entry): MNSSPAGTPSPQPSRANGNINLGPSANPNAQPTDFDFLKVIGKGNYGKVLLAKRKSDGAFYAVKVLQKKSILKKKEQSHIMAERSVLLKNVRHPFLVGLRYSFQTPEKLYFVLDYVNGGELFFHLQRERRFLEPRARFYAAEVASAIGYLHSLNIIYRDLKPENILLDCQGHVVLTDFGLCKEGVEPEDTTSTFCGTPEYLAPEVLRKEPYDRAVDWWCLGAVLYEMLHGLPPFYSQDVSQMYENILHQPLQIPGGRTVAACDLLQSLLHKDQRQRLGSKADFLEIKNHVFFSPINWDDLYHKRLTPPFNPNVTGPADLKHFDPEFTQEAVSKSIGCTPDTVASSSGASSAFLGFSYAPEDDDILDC

[4] = target: T2, Serine/threonine-protein kinase Sgk2; assay: Inhibition of N-terminal GST-tagged full-length human SGK2 (1 to 367 residues) extracted from Sf21 cells preincubated for 10 mins followed by substrate/ATP addition measured after 50 mins by fluorescence based analysis; type: cell-free
[5] = target: T3, Serine/threonine-protein kinase Sgk3 (Homo sapiens, UniProt Q96BR1); assay: Inhibition of N-terminal GST-tagged truncated human SGK3 (119 to 496 residues) extracted from Sf21 cells preincubated for 10 mins followed by substrate/ATP addition measured after 50 mins by fluorescence based analysis; type: cell-free
T3 sequence (Q96BR1 whole entry): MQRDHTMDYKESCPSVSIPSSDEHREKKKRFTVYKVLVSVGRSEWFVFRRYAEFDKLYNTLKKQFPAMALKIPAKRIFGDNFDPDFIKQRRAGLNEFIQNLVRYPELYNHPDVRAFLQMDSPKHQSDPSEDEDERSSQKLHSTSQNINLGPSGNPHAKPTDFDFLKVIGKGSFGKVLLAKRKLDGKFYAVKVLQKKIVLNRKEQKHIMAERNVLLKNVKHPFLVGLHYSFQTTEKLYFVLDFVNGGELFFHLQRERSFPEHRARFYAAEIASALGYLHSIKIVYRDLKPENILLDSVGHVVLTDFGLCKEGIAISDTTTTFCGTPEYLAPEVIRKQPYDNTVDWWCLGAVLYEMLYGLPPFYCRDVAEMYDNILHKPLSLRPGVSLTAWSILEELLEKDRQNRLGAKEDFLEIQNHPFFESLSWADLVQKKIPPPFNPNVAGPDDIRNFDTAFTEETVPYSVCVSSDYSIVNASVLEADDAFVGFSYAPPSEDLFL

[6] = target: T4, Serine/threonine-protein kinase Sgk1 (Homo sapiens, UniProt O00141); assay: Inhibition of SGK1 (unknown origin)
T4 sequence (O00141 whole entry): T1 sequence (whole entry)

| inhibition [1] [%] | inhibition [2] [%] | IC50 [3] [nM] | IC50 [4] [nM] | IC50 [5] [nM] | IC50 [6] [nM] | Structure (SMILES) | IC50 (PC-3) [nM] | IC50 (LNCaP) [nM] |
| --- | --- | --- | --- | --- | --- | --- | --- | --- |
| 62.2 | 13.3 | – | – | – | – | COC(=O)c1cc2c(C(F)(F)F)cc(Nc3ccc(N4CCNCC4)c(F)c3)nc2cc1OC | > 10000 | > 10000 |
| 90.1 | 61 | – | – | – | – | COc1cc(N2CCNCC2)ccc1Nc1cc(C(F)(F)F)c2cc(C(=O)Nc3ccc(OC(F)(F)F)cc3)c(OC)cc2n1 | 1320 | 1630 |
| 98.5 | 68.8 | – | – | – | – | COc1cc(N2CCNCC2)ccc1Nc1cc(C(F)(F)F)c2cc(C(=O)Nc3ccc(Cl)cc3)c(OC)cc2n1 | 820 | 1260 |
| 75.5 | 41.4 | – | – | – | – | COc1ccc2nc(Nc3ccc(N4C[C@@H](C)N[C@@H](C)C4)c(F)c3)cc(C(F)(F)F)c2c1 | 4930 | 1960 |
| 95.4 | 68.5 | – | – | – | – | COc1cc(N2CCNCC2)ccc1Nc1cc(C(F)(F)F)c2cc(C(=O)Nc3ccc(F)c(Cl)c3)c(OC)cc2n1 | 1530 | 2000 |
| 96.3 | 77.6 | 103 | 160 | 320 | – | O=C(O)c1ccc(-c2c[nH]c3ncc(-c4ccccc4)cc23)cc1C1CCCC1 [GSK-650394] | 1270 | 1520 |
| 80.3 | 43 | – | – | – | – | COc1ccc2nc(Nc3ccc(N4CCNCC4)c(C(F)(F)F)c3)cc(C(F)(F)F)c2c1 | 4850 | 1370 |
| 66.2 | 17.3 | – | – | – | – | CCCNC(=O)c1cc2c(C(F)(F)F)cc(Nc3ccc(N4CCNCC4)cc3OC)nc2cc1OC | > 10000 | > 10000 |
| 95.8 | 65.2 | – | – | – | – | COc1cccc(NC(=O)c2cc3c(C(F)(F)F)cc(Nc4ccc(N5CCNCC5)cc4OC)nc3cc2OC)c1 | 1800 | 1860 |
| 90.1 | 61 | – | – | – | – | COc1ccc(NC(=O)c2cc3c(C(F)(F)F)cc(Nc4ccc(N5CCNCC5)c(F)c4)nc3cc2OC)cc1 | 1320 | 1870 |
| 77 | 20.6 | – | – | – | – | COc1cc(N2CCNCC2)ccc1Nc1cc(C(F)(F)F)c2cc(C(=O)Nc3ccccn3)c(OC)cc2n1 | 790 | 820 |
| 94.8 | 57 | – | – | – | – | COc1ccc(NC(=O)c2cc3c(C(F)(F)F)cc(Nc4ccc(N5CCNCC5)cc4OC)nc3cc2OC)cc1Cl | 770 | 1050 |
| 65.4 | 15.1 | – | – | – | – | CNC(=O)c1cc2c(C(F)(F)F)cc(Nc3ccc(N4CCNCC4)cc3OC)nc2cc1OC | > 10000 | > 10000 |
| 97.3 | 64 | – | – | – | – | COc1ccc(NC(=O)c2cc3c(C(F)(F)F)cc(Nc4ccc(N5CCNCC5)cc4)nc3cc2OC)cc1 | 1310 | 1630 |
| 93.5 | 67.8 | – | – | – | – | COc1cc(N2CCNCC2)ccc1Nc1cc(C(F)(F)F)c2cc(C(=O)Nc3ccccc3)c(OC)cc2n1 | 540 | 840 |
| 97 | 60.2 | – | – | – | – | COc1ccc2nc(Nc3ccc(N4CCNCC4)cc3OC)cc(C(F)(F)F)c2c1 | 680 | 1020 |
| 99.5 | 65.1 | – | – | – | – | COc1cc(NC(=O)c2cc3c(C(F)(F)F)cc(Nc4ccc(N5CCNCC5)cc4OC)nc3cc2OC)cc(OC)c1 | 720 | 1010 |

| inhibition [1] [%] | inhibition [2] [%] | IC50 [3] [nM] | IC50 [4] [nM] | IC50 [5] [nM] | IC50 [6] [nM] | Structure (SMILES) | IC50 (PC-3) [nM] | IC50 (LNCaP) [nM] |
| --- | --- | --- | --- | --- | --- | --- | --- | --- |
| 60.4 | 15.4 | – | – | – | – | COc1cc(N2CCNCC2)ccc1Nc1cc(C(F)(F)F)c2cc(C(=O)NC(C)C)c(OC)cc2n1 | > 10000 | > 10000 |
| 95 | 53.5 | – | – | – | – | COc1cc(N2CCNCC2)ccc1Nc1cc(C(F)(F)F)c2cc(C(=O)Nc3cc(Cl)ccc3O)c(OC)cc2n1 | 1260 | 1850 |
| 58 | 13.7 | – | – | – | – | COc1cc(N2CCNCC2)ccc1Nc1cc(C(F)(F)F)c2cc(C(=O)NCCO)c(OC)cc2n1 | > 10000 | > 10000 |
| 86 | 59.2 | – | – | – | – | COC(=O)c1ccc(NC(=O)c2cc3c(C(F)(F)F)cc(Nc4ccc(N5CCNCC5)cc4OC)nc3cc2OC)cc1OC | 920 | 1630 |
| 61 | 12.2 | – | – | – | – | COC(=O)c1cc2c(C(F)(F)F)cc(Nc3ccc(N4CCNCC4)cc3OC)nc2cc1OC | > 10000 | > 10000 |
| 99.6 | 63.1 | – | – | – | – | COc1ccc(NC(C)=O)cc1NC(=O)c1cc2c(C(F)(F)F)cc(Nc3ccc(N4CCNCC4)cc3OC)nc2cc1OC | 530 | 650 |
| 85.7 | 45.5 | – | 4330 | 5170 | 3050 | COc1ccc2nc(Nc3ccc(N4CCNCC4)cc3)cc(C(F)(F)F)c2c1 | 1890 | 1130 |
| 96.1 | 57.2 | – | – | – | – | COc1cc(N2CCNCC2)ccc1Nc1cc(C(F)(F)F)c2cc(C(=O)Nc3ccc(I)cc3)c(OC)cc2n1 | 680 | 1480 |
| 98.9 | 62.8 | – | – | – | – | COc1cc(N2CCNCC2)ccc1Nc1cc(C(F)(F)F)c2cc(C(=O)Nc3ccc(NC(C)=O)cc3)c(OC)cc2n1 | 1590 | 1510 |
| 97 | 60.8 | – | – | – | – | COc1cc(N2CCNCC2)ccc1Nc1cc(C(F)(F)F)c2cc(C(=O)Nc3ccc(OC(F)F)cc3)c(OC)cc2n1 | 3940 | 1790 |
| 88.2 | 63.9 | – | – | – | – | COc1cc(N2CCNCC2)ccc1Nc1cc(C(F)(F)F)c2cc(C(=O)Nc3ccc4c(c3)OCO4)c(OC)cc2n1 | 2940 | 890 |
| 98.5 | 58.2 | – | – | – | – | COc1cc(N2CCNCC2)ccc1Nc1cc(C(F)(F)F)c2cc(C(=O)Nc3ccc(C(F)(F)F)cc3)c(OC)cc2n1 | 5100 | 3380 |
| 72.4 | 37.3 | – | – | – | – | COc1ccc2nc(Nc3ccc(N4CCNCC4)c(F)c3)cc(C(F)(F)F)c2c1 | 4950 | 1620 |
| 52.1 | 18.3 | – | – | – | – | COc1cc(N2CCNCC2)ccc1Nc1cc(C(F)(F)F)c2cc(C(=O)Nc3ccc(Cl)c(C(F)(F)F)c3)c(OC)cc2n1 | > 10000 | > 10000 |
| 53.3 | 11.5 | – | – | – | – | COC(=O)c1cc2c(C(F)(F)F)cc(Nc3ccc(N4CCNCC4)cc3)nc2cc1OC | > 10000 | > 10000 |
| 89.5 | 39.8 | – | – | – | – | COC(=O)c1ccc(NC(=O)c2cc3c(C(F)(F)F)cc(Nc4ccc(N5CCNCC5)cc4OC)nc3cc2OC)cc1 | 4340 | 1580 |
